Where two headings read alike, the source gives them in different places.
What was measured:
[1] = system: Mper1-luc Rat-1 fibroblasts (P2C4); test: Cellular Circadian Assay (Mper1-luc reporter period lengthening); type: cell-based; details: effective micromolar concentration that induced a 1 hour lengthening of circadian period
Text: The assay consists of Rat-1 fibroblasts stably expressing an Mper1-luc construct, thus enabling the determination of the rhythmic activation of the Mper1 promoter in living cells by repeatedly estimating luciferase activity by monitoring light-output over several days. The repeated measure format of the assay permits accurate and reproducible assessment of the concentration-dependent effects of CKIε inhibitors on circadian rhythm and provides the nexus for relating CKIε inhibition to circadian period alteration.
Cellular Circadian Assay Experimental Procedures
Stable transfection: Rat-1 fibroblast cultures at 30-50% confluence were co-transfected with vectors containing the Zeocin resistance selectable marker for stable transfection and an mPer-1 promoter-driven luciferase reporter gene. After 24-48 hours, cultures were split onto 96 well plates and maintained in growth media supplemented with 50-100 μg/mL Zeocin (Invitrogen #45-0430) for 10-14 days. Zeocin-resistant stable transfectants were assessed for reporter expression by supplementing growth media with 100 μM luciferin (Promega #E1603) and assaying luciferase activity on a TopCount scintillation counter (Packard Model #C384V00). […] Mper1-luc Rat-1 fibroblasts clone P2C4 was selected for compound testing. […] After synchronization, cultures were rinsed with 100 μL EMEM (Celigro #10-010-CV) for 10 minutes at room temperature. […] Compounds tested for circadian effects were added to CO2-independent media in 0.3% DMSO (final concentration). […] In Vivo luciferase activity was estimated by measuring relative light output on a TopCount scintillation counter (Packard Model #C384V00). Plates were transferred from incubator to reader using an ORCA robotic arm (Beckman Instruments) and SAMI-NT automated scheduling software (Version 3.3; SAGIAN/Beckman Instruments). Data Analysis: Microsoft Excel and XLfit (Version 2.0.9; IDBS) were used to import, manipulate and graph data. Period analysis was performed either by determining the interval between relative light output minima over several days or by Fourier Transform. […] Potency is reported as EC≡t+1h, which is presented as the effective micromolar concentration that induced a 1 hour lengthening of period. The data was analyzed by fitting a hyperbolic curve to the data expressed as period change (y-axis) versus the concentration of test compound (x-axis) in XLfit and the EC[…]t+1h was interpolated from this curve.

[2] = target: T1, casein kinase 1ε (Homo sapiens, UniProt P49674); test: Casein Kinase Epsilon 33P-ATP Filter Plate Assay; type: biochemical
T1 construct: made in house
T1 sequence (P49674 whole entry): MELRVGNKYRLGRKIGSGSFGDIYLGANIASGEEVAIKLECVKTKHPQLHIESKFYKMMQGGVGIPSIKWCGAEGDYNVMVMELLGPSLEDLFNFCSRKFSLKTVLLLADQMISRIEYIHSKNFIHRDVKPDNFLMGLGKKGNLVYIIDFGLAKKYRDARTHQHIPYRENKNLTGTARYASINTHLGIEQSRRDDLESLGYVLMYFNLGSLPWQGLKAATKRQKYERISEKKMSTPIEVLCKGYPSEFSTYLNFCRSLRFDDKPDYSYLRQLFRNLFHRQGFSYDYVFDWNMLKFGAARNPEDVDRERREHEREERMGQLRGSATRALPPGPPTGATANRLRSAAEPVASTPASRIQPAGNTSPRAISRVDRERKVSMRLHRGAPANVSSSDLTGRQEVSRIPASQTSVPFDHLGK
Text: Casein Kinase Epsilon ^33P-ATP Filter Plate Assay for Screening CK1 Inhibitors Purpose: This assay measures the effect of compounds to inhibit the phosphorylation of the substrate casein by the enzyme casein kinase 1ε using an in vitro ^33P-ATP filtration assay.
Equipment: • Beckman Biomek 2000 Liquid Handling Robot • Beckman Multimek 96 Automated 96 Channel Pipettor • Millipore Vacuum Manifold Basic Kit # MAVM0960R • Titertek Multidrop Liquid Dispenser • Packard TopCount NXT Liquid Scintillation Counter
Enzyme: • Casein Kinase 1ε final concentration 0.58 mg/ml obtained from fermentation and purification processes performed by Aventis Pharmaceuticals Inc., France. The above are stored as 100 μL aliquots at minus 80° C.
Compounds: • Compounds for testing are supplied as frozen 10 mM compound stock dissolved in 100% DMSO. Assay Conditions:
Final total assay volume per well is equal to 50 μL made up as follows: • 5 μL of diluted compound stock ([…], 0.1, 0.01 or 0.001 μM), • 5 μL of dephosphorylated casein final concentration 0.2 μg/μL, • 20 μL of CK1ε final concentration 3 ng/μL, and • 20 μL of γ-^33P-ATP final concentration 0.02 μCi/μL mixed with cold ATP (10 μM final). Methodology: • 1. 500 mL of fresh assay buffer is made: 50 mM Tris pH 7.5, 10 mM MgCl2, 2 mM DTT and 1 mM EGTA • 2. Compounds to be evaluated are obtained as 10 μL of 10 mM stock dissolved in 100% DMSO. Using a Biomek 2000 liquid handling robot, serial dilutions are made to yield 10, 1, 0.1, 0.01 and 0.001 μM final compound dilutions added as 5 μL additions to Falcon U bottom plates. […] A routine screening assay will consist of 32 compounds, which equals 4 assay plates. • 3. Assay plate maps are set up according to the following pattern
• 4. […] Finally 20 μL […] (0.02 μCi/μL)/10 μM cold ATP are added (equals approximately 2×10^6 CPM per well). • 6. The Falcon U-Bottom assay plate containing the above 50 μL reaction volume is vortexed and then incubated at room temperature for 2 hours. • 7. At the end of 2 hours, the reaction is stopped by the addition of 65 μL of ice cold 2 mM cold ATP (made up in assay buffer) to the assay plates using a Beckman Multimek • 8. At the same time 25 μL 100% ice cold TCA made up in distilled H2O is added to a matching number of Millipore MAPH filter plates. • 9. Using a handheld 8-channel pipettor, 100 μL of the reaction mixture is transferred from the Falcon U-Bottom Plate to the Millipore MAPH filter plates presoaked with TCA. • 10. The Millipore MAPH filter plates are mixed gently and allowed to sit at room temperature for at least 30 minutes to precipitate the proteins. • 11. After 30 minutes the filter plates are placed on a Millipore vacuum manifold and filtered at no more than 8 mm Hg as the MAPH filters tend to “air lock” at higher vacuum settings. • 12. The filter plates are sequentially washed and filtered with 2×150 μL 20% TCA, 2×150 μL 10% TCA and 2×150 μL 5% TCA (total of 6 washes per plate/900 μL per well). • 13. Plates are allowed to dry overnight at room temperature. The next day 40 μL Packard Microscint-20 Scintillation Fluid is added per well using a Titertek Multidrop dispenser; the plates are sealed and counted for 2 minutes/well in a Packard Topcount NXT Scintillation Counter (CPM values/well are captured). Calculation: • 1. Counts Per Minute (CPM) data is captured and imported into a proprietary data calculation and archiving database (Activity Base by IDBS version 5.0). • 2. Column 1 for each plate reflects total phosphorylation activity of the enzyme in the absence of any inhibiting compound and thus represents 100%. Column 12 reflects any nonspecific phosphorylation/retained radioactivity activity in the absence of inhibiting compound and enzyme.

With `NC(=O)c1[nH]c2cccnc2c1Sc1ccccc1F` [Ia-8, 3-(2-Fluorophenylsulfanyl)-1H-pyrrolo[3,2-b]pyridine-2-carboxylic acid amide] the “Cell Assay ECΔτ+1h” value [1] was 0.75 µM and the IC50 [2] was 531 nM.
With `NC(=O)c1[nH]c2cccnc2c1Sc1cccc(Cl)c1` [Ia-3, 3-(3-Chlorophenylsulfanyl)-1H-pyrrolo[3,2-b]pyridine-2-carboxylic acid amide] the melting point was 246.5 to 248 °C, the “Cell Assay ECΔτ+1h” value [1] was 0.31 µM and the IC50 [2] was 26 nM.
With `NC(=O)c1[nH]c2cccnc2c1Sc1ccccc1Cl` [Ia-5, 3-(2-Chlorophenylsulfanyl)-1H-pyrrolo[3,2-b]pyridine-2-carboxylic acid amide] the “Cell Assay ECΔτ+1h” value [1] was 1.13 µM and the IC50 [2] was 6530 nM.
With `COc1cccc(Sc2c(C(N)=O)[nH]c3cccnc23)c1` [Ia-15, 3-(3-Methoxy-phenylsulfanyl)-1H-pyrrolo[3,2-b]pyridine-2-carboxylic acid amide] the “Cell Assay ECΔτ+1h” value [1] was 1.1 µM and the IC50 [2] was 109 nM.
Compound `NC(=O)c1[nH]c2cccnc2c1Sc1ccc(Cl)cc1Cl` [Ia-7, 3-(2,4-Dichlorophenylsulfanyl)-1H-pyrrolo[3,2-b]pyridine-2-carboxylic acid amide] has a melting point of 266 °C and an IC50 [2] of over 10000 nM.
In the case of `Cc1cccc(Sc2c(C(N)=O)[nH]c3cccnc23)c1` [Ia-22, 3-m-Tolylsulfanyl-1H-pyrrolo[3,2-b]pyridine-2-carboxylic acid amide], the “Cell Assay ECΔτ+1h” value [1] is reported as over 10 µM and the IC50 [2] is reported as 73 nM.
With `Cc1ccc(Sc2c(C(N)=O)[nH]c3cccnc23)cc1` [Ia-20, 3-p-Tolylsulfanyl-1H-pyrrolo[3,2-b]pyridine-2-carboxylic acid amide] the “Cell Assay ECΔτ+1h” value [1] was over 10 µM and the IC50 [2] was 261 nM.
With `NC(=O)c1[nH]c2cccnc2c1Sc1ccc(Cl)cc1` [Ia-6, 3-(4-Chlorophenylsulfanyl)-1H-pyrrolo[3,2-b]pyridine-2-carboxylic acid amide] the melting point was 266 °C, the “Cell Assay ECΔτ+1h” value [1] was 13.8 µM and the IC50 [2] was 491 nM.
In the case of `NC(=O)c1[nH]c2cccnc2c1Sc1cccc([N+](=O)[O-])c1` [Ia-18, 3-(3-Nitro-phenylsulfanyl)-1H-pyrrolo[3,2-b]pyridine-2-carboxylic acid amide], the “Cell Assay ECΔτ+1h” value [1] is reported as over 10 µM and the IC50 [2] is reported as 186 nM.
For `NC(=O)c1[nH]c2cccnc2c1Sc1ccccc1` [Ia-1, 3-Phenylsulfanyl-1H-pyrrolo[3,2-b]pyridine-2-carboxylic acid amide], the melting point was 251 °C, the “Cell Assay ECΔτ+1h” value [1] was 0.27 µM and the IC50 [2] was 36 nM.
For `NC(=O)c1[nH]c2cccnc2c1Sc1cccc2cccnc12` [Ia-25, 3-(Quinolin-8-ylsulfanyl)-1H-pyrrolo[3,2-b]pyridine-2-carboxylic acid amide], the “Cell Assay ECΔτ+1h” value [1] was 2.26 µM and the IC50 [2] was 1550 nM.
In the case of `NC(=O)c1[nH]c2cccnc2c1Sc1cccc(Br)c1` [Ia-4, 3-(3-Bromophenylsulfanyl)-1H-pyrrolo[3,2-b]pyridine-2-carboxylic acid amide], the “Cell Assay ECΔτ+1h” value [1] is reported as 0.12 µM and the IC50 [2] is reported as 25 nM.
For `NC(=O)c1[nH]c2cccnc2c1Sc1ccccc1N` [Ia-12, 3-(2-Aminophenylsulfanyl)-1H-pyrrolo[3,2-b]pyridine-2-carboxylic acid amide], the “Cell Assay ECΔτ+1h” value [1] was 0.44 µM and the IC50 [2] was 36 nM.
In the case of `NC(=O)c1[nH]c2cccnc2c1Sc1cccc(F)c1` [Ia-2, 3-(3-Fluorophenylsulfanyl)-1H-pyrrolo[3,2-b]pyridine-2-carboxylic acid amide], the melting point is reported as 235 to 237 °C, the “Cell Assay ECΔτ+1h” value [1] is reported as 0.51 µM and the IC50 [2] is reported as 74 nM.
For `NC(=O)c1[nH]c2cccnc2c1Sc1ccccc1C(F)(F)F` [Ia-10, 3-(2-Trifluormethylphenylsulfanyl)-1H-pyrrolo[3,2-b]pyridine-2-carboxylic acid amide], the “Cell Assay ECΔτ+1h” value [1] was 2.94 µM and the IC50 ([2]; phosphorylation of casein, 10 μM cold ATP, 2 hours room temperature, * denotes average of 2 or more determinations, read-out: Casein Kinase Iε 33P-ATP Filter Plate Assay IC50) was 2890 nM.

Source: US7626027B2, “Substituted 1H-pyrrolo[2,3-c]pyridine-2-carboxamides and related analogs as inhibitors of casein kinase Iε” (Aventis Pharmaceuticals Inc, priority 2003, dated 2009)
